From patent publication EP2769738B1, “Conjugated TLR7 and/or TLR8 and TLR2 polycationic agonists” (Invivogen, priority 2013, dated 2014)

target: T1, murine TLR7 (Mus musculus, UniProt P58681); assay: HEK-Blue mTLR7 NF-κB/AP-1-inducible SEAP reporter cell assay; type: cell-based; conditions: Figure 2; 10 µg/mL to 10 pg/ml, 24 hours, SEAP read as OD at 655 nm
T1 construct: host or cells: HEK293 (ATCC, CRL-1573), HEK-Blue mTLR7
T1 sequence (P58681 27-1050): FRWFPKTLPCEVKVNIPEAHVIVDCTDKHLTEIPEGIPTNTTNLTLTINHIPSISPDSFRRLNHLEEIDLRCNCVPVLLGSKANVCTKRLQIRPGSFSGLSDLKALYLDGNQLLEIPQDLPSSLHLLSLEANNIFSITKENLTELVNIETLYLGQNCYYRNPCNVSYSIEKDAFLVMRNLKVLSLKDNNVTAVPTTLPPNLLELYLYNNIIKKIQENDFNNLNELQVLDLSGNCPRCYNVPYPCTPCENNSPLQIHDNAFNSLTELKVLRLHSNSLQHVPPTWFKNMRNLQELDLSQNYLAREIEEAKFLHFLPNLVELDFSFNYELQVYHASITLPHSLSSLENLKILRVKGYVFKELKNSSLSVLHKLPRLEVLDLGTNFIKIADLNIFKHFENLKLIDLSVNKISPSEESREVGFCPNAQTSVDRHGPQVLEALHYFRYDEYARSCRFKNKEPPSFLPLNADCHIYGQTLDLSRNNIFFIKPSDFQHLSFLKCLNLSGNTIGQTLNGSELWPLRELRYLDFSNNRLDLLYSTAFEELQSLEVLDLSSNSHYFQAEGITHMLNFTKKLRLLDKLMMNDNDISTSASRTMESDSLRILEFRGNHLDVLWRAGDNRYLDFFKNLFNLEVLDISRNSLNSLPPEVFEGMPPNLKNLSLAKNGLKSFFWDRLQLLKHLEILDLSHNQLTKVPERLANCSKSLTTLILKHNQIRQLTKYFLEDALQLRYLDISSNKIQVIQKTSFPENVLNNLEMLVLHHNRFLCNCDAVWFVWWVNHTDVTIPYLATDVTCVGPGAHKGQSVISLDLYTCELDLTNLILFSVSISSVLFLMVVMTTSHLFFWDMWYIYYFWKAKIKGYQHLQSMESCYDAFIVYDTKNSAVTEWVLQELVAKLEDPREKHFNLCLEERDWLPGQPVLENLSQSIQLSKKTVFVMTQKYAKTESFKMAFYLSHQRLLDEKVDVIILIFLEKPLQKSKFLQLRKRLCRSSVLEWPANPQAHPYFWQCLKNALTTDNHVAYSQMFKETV
Text: Assays for detecting TLR7, TLR8 or TLR2 activity are known in the art and include for example cell-based assays using respectively TLR7, TLR8 or TLR2 reporter cell lines (InvivoGen). The reporter cell lines are engineered HEK293 cells, a human embryonic kidney cell line (ATCC, CRL-1573) that stably express either murine TLR7 (HEK-Blue™ mTLR7) or human TLR7 (HEK-Blue™ hTLR7), human TLR8 (HEK-Blue™ hTLR8) or human TLR2 (HEK- Blue™ hTLR2) with an NF-κB-inducible secreted embryonic alkaline phosphatase (SEAP) as the reporter gene.
Cell-based assays were carried out using TLR7 and TLR2 reporter cell lines (InvivoGen). The reporter cell lines are engineered HEK293 cells, a human embryonic kidney cell line (ATCC, CRL-1573) that stably express either murine TLR7 (HEK-Blue™ mTLR7) or human TLR7 (HEK-Blue™ hTLR7) or human TLR2 (HEK- Blue™ hTLR2) with an NF-κB-inducible secreted embryonic alkaline phosphatase (SEAP) as the reporter gene. The SEAP reporter gene is under the control of the NF-κB and AP-1-inducible promoter, which, upon treatment with a corresponding TLR ligand and activation of NF-κB and AP-1, induces the production of SEAP. Detection of SEAP is measured following culturing cells in HEK-Blue™ Detection media (InvivoGen). HEK-Blue™ Detection contains a SEAP substrate that when hydrolysed by SEAP produces a colorimetric change allowing for detection of SEAP as the protein is secreted. […] These assays were carried out using RAW-Blue™ Cells (InvivoGen), derived from RAW 264.7 mouse leukemic monocyte macrophage cell line (ATCC, CRL 2278) stably overexpressing a NF-κB /AP-1 inducible SEAP reporter constructs.
To perform the assay, cells were seeded on 96 well microliter plates at 50,000 or 100,000 cells per well for HEK-Blue™ Cells and RAW-Blue™ Cells respectively, and cultured at 37 °C in the presence of the conjugated compounds The TLR7-TLR2 polyamine molecules were prepared as follows: First, stock solutions of the conjugated compounds of the invention were prepared in ethanol or water to a concentration of 10 mg/ml.
The working dilutions of the conjugated TLR7-TLR2 polyamine agonists made up in water or PBS were directly added to the reporter cell lines at a final concentration ranging from 10 µg/mL to 10 pg/ml and incubated at 37 °C for 24 hours. After 24 hours of incubation, the effect on reporter gene activity was determined by reading the OD at 655 nm using iMark™ Microplate Reader (BIO-RAD).

ability to activate mTLR7 | SMILES
activate mTLR7 | CCCCCCCCCCCCCCCC(=O)OCC(CSC[C@H](N)C(=O)NCCCC[C@H](NC(=O)c1ccc(Cn2c(O)nc3c(N)nc(NCCCC)nc32)cc1)C(=O)NCCCNCCCCNCCCN)OC(=O)CCCCCCCCCCCCCCC (stereo partly drawn) [CL486, (6R,13S)-6,27-diamino-13-(4-((6-amino-2-(butylamino)-8-hydroxy-9H-purin-9-yl)methyl)benzamido)-7,14-dioxo-4-thia-8,15,19,24-tetraazaheptacosane-1,2-diyl dipalmitate]
activate mTLR7 | CCCCCCCCCCCCCCCC(=O)OCC(CSC[C@H](N)C(=O)N[C@@H](COC(=O)c1ccc(Cn2c(O)nc3c(N)nc(NCCCC)nc32)cc1)C(=O)NCCCNCCCCNCCCN)OC(=O)CCCCCCCCCCCCCCC (stereo partly drawn) [CL514, (6R,9S)-6,23-diamino-9-((4-((6-amino-2-(butylamino)-8-hydroxy-9H-purin-9-yl)methyl)benzoyloxy)methyl)-7,10-dioxo-4-thia-8,11,15,20-tetraazatricosane-1,2-diyl dipalmitate]
activate mTLR7 | CCCCCCCCCCCCCCCC(=O)OCC(CSC[C@H](N)C(=O)N[C@@H](CCC(=O)NCCCNCCCCNCCCN)C(=O)Nc1ccc(Cn2c(O)nc3c(N)nc(NCCCC)nc32)cc1)OC(=O)CCCCCCCCCCCCCCC (stereo partly drawn) [CL527, (6R,9S)-6,25-diamino-9-(4-((6-amino-2-(butylamino)-8-hydroxy-9H-purin-9-yl)methyl)phenylcarbamoyl)-7,12-dioxo-4-thia-8,13,17,22-tetraazapentacosane-1,2-diyl dipalmitate]
activate mTLR7 | CCCCCCCCCCCCCCCC(=O)OCC(CSC[C@H](N)C(=O)N[C@@H](CCCCNC(=O)CNC(=O)c1ccc(Cn2c(O)nc3c(N)nc(NCCCC)nc32)cc1)C(=O)NCCCNCCCCNCCCN)OC(=O)CCCCCCCCCCCCCCC (stereo partly drawn) [CL475, (6R,9S)-6,23-diamino-9-(4-(2-(4-((6-amino-2-(butylamino)-8-hydroxy-9H-purin-9-yl)methyl)benzamido)acetamido)butyl)-7,10-dioxo-4-thia-8,11,15,20-tetraazatrico sane-1,2-diyl dipalmitate]
activate mTLR7 | CCCCCCCCCCCCCCCC(=O)OCC(CSC[C@H](N)C(=O)NCCCNCCCCNCCCNC(=O)CNC(=O)c1ccc(Cn2c(O)nc3c(N)nc(NCCCC)nc32)cc1)OC(=O)CCCCCCCCCCCCCCC (stereo partly drawn) [CL553, (20R)-20-amino-1-(4-((6-amino-2-(butylamino)-8-hydroxy-9H-purin-9-yl)methyl)phenyl)-1,4,19-trioxo-22-thia-2,5,9,14,18-pentaazapentacosane-24,25-diyl dipalmitate]
activate mTLR7 | CCCCCCCCCCCCCCCC(=O)OCC(CSC[C@H](N)C(=O)NCCCC[C@H](NC(=O)CNC(=O)c1ccc(Cn2c(O)nc3c(N)nc(NCCCC)nc32)cc1)C(=O)NCCCNCCCCNCCCN)OC(=O)CCCCCCCCCCCCCCC (stereo partly drawn) [CL487, (6R,13S)-6,27-diamino-13-(2-(4-((6-amino-2-(butylamino)-8-hydroxy-9H-purin-9-yl)methyl)benzamido)acetamido)-7,14-dioxo-4-thia-8,15,19,24-tetraazaheptacosane-1,2-diyl dipalmitate]
